Assay results: ChEMBL document CHEMBL4507293 (2021); call rule not given here

Experiments:
[1] = target: Cyclin-G-associated kinase (Homo sapiens) (UniProt O14976); details: Compound concentration 100.0 nM
[2] = target: GABA-A receptor; anion channel (Rattus norvegicus) (UniProt O09028+P15431+P18506+P18508+P19969+P20236+P23574+P23576+P28471+P28473+P30191+P62813+P63079+P63138+Q91ZM7+Q9ES14); details: Compound concentration 10.0 uM
[3] = target: STE20/SPS1-related proline-alanine-rich protein kinase (Homo sapiens) (UniProt Q9UEW8); details: Compound concentration 100.0 nM
[4] = target: Mitogen-activated protein kinase 9 (Homo sapiens) (UniProt P45984); details: Compound concentration 100.0 nM
[5] = target: Mitogen-activated protein kinase kinase kinase 15 (Homo sapiens) (UniProt Q6ZN16); details: Compound concentration 100.0 nM
[6] = target: Non-receptor tyrosine-protein kinase TNK1 (Homo sapiens) (UniProt Q13470); details: Compound concentration 100.0 nM
[7] = target: Ephrin type-A receptor 3 (Homo sapiens) (UniProt P29320); details: Compound concentration 100.0 nM
[8] = target: Tyrosine-protein kinase Lck (Homo sapiens) (UniProt P06239); details: Compound concentration 100.0 nM
[9] = target: Serine/threonine-protein kinase MRCK gamma (Homo sapiens) (UniProt Q6DT37); details: Compound concentration 100.0 nM
[10] = target: Activated CDC42 kinase 1 (Homo sapiens) (UniProt Q07912); details: Compound concentration 100.0 nM
[11] = target: Tyrosine-protein kinase FRK (Homo sapiens) (UniProt P42685); details: Compound concentration 100.0 nM
[12] = test system: Phosphatidylinositol 4,5-bisphosphate 3-kinase catalytic subunit alpha isoform (Homo sapiens), P42336 [E545A]; details: Compound concentration 100.0 nM
Sequence of Phosphatidylinositol 4,5-bisphosphate 3-kinase catalytic subunit alpha isoform (Homo sapiens), P42336 [E545A] (P42336 whole entry E545A, canonical isoform): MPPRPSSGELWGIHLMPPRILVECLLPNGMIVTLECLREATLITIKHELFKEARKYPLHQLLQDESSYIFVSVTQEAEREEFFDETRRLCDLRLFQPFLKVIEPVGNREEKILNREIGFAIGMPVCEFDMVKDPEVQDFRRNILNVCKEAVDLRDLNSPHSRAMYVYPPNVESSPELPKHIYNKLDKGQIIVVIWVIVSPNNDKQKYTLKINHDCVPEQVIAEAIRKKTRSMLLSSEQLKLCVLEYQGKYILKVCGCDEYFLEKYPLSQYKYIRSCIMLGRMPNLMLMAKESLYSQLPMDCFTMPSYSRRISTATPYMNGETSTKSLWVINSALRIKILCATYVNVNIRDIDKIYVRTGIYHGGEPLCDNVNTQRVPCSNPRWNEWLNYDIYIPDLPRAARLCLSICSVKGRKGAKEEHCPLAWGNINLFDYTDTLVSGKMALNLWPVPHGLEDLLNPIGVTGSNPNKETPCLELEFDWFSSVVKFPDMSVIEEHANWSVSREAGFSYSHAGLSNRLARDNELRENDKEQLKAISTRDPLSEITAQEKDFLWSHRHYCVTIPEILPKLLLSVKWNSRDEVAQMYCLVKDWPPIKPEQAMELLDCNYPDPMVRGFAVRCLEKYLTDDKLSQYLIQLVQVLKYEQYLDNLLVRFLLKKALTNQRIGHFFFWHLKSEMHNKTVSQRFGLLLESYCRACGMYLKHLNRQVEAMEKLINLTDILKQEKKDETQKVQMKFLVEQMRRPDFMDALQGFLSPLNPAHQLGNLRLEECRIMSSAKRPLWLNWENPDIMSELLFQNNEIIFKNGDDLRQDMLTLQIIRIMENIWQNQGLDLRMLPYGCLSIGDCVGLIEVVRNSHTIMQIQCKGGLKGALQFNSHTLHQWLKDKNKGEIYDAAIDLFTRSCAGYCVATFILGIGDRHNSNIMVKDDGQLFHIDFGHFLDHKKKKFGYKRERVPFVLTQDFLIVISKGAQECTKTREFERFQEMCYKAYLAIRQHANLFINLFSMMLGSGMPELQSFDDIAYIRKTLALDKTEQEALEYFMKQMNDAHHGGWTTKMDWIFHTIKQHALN

[13] = target: Serine/threonine-protein kinase 32B (Homo sapiens) (UniProt Q9NY57); details: Compound concentration 100.0 nM
Sequence of Serine/threonine-protein kinase 32B (Homo sapiens) (Q9NY57 whole entry): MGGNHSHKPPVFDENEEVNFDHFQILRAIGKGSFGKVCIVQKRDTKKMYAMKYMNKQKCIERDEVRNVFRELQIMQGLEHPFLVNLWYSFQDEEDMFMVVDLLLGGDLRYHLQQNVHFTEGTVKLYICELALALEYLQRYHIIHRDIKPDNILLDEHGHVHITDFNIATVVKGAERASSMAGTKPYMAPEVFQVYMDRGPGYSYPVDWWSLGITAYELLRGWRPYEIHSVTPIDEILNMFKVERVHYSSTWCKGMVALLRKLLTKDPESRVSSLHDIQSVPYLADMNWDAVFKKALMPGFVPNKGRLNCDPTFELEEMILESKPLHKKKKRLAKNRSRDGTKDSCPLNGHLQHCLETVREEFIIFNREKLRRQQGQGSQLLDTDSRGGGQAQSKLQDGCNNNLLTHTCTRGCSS

[14] = target: cGMP-specific 3',5'-cyclic phosphodiesterase (Homo sapiens, UniProt O76074); assay: Biochemical assay (PDE5A)
[15] = target: Cyclin-dependent kinase 9 (Homo sapiens) (UniProt P50750); details: Compound concentration 100.0 nM
[16] = target: Serine/threonine-protein kinase Chk1 (Homo sapiens) (UniProt O14757); details: Compound concentration 100.0 nM
[17] = target: Eukaryotic translation initiation factor 2-alpha kinase 1 (Homo sapiens) (UniProt Q9BQI3); details: Compound concentration 100.0 nM
Sequence of Eukaryotic translation initiation factor 2-alpha kinase 1 (Homo sapiens) (Q9BQI3 whole entry): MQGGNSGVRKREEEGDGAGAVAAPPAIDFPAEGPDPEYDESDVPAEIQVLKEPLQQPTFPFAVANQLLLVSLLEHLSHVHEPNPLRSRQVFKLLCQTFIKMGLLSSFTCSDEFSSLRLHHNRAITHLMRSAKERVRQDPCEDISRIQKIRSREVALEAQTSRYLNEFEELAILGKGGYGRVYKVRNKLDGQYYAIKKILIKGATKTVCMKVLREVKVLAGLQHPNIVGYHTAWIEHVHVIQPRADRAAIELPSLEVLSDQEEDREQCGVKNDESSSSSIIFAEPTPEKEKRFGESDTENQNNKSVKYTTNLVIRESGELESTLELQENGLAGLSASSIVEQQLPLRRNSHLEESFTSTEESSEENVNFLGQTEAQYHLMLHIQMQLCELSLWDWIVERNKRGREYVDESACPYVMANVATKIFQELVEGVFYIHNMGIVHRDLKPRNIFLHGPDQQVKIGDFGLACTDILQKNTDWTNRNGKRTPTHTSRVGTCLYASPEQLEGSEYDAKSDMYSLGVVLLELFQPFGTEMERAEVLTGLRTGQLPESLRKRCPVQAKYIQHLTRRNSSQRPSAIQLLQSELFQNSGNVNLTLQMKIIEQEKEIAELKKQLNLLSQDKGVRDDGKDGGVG

[18] = test system: Tyrosine-protein kinase ABL1 (Homo sapiens), P00519 [M351T]; details: Compound concentration 100.0 nM
[19] = target: Serine/threonine-protein kinase WNK1 (Homo sapiens) (UniProt Q9H4A3); details: Compound concentration 100.0 nM
[20] = target: Serine/threonine-protein kinase 16 (Homo sapiens) (UniProt O75716); details: Compound concentration 100.0 nM
[21] = target: Interferon-induced, double-stranded RNA-activated protein kinase (Homo sapiens) (UniProt P19525); details: Compound concentration 100.0 nM
[22] = target: Cyclin-dependent kinase-like 5 (Homo sapiens) (UniProt O76039); details: Compound concentration 100.0 nM
[23] = target: Serine/threonine-protein kinase PLK2 (Homo sapiens) (UniProt Q9NYY3); details: Compound concentration 100.0 nM
[24] = target: Phosphatidylinositol 4,5-bisphosphate 3-kinase catalytic subunit alpha isoform (Homo sapiens) (UniProt P42336); details: Compound concentration 100.0 nM
Sequence of Phosphatidylinositol 4,5-bisphosphate 3-kinase catalytic subunit alpha isoform (Homo sapiens) (P42336 whole entry, canonical isoform): as the sequence (P42336 whole entry E545A, canonical isoform) above, with A545E counted along it

[25] = target: Casein kinase I isoform alpha-like (Homo sapiens) (UniProt Q8N752); details: Compound concentration 100.0 nM
[26] = target: Serine/threonine-protein kinase LATS2 (Homo sapiens) (UniProt Q9NRM7); details: Compound concentration 100.0 nM
[27] = target: MAP/microtubule affinity-regulating kinase 3 (Homo sapiens) (UniProt P27448); details: Compound concentration 100.0 nM
[28] = target: Cyclin-dependent kinase 8 (Homo sapiens) (UniProt P49336); details: Compound concentration 100.0 nM
[29] = target: Protein kinase C theta type (Homo sapiens) (UniProt Q04759); details: Compound concentration 100.0 nM
Sequence of Protein kinase C theta type (Homo sapiens) (Q04759 whole entry, looked up): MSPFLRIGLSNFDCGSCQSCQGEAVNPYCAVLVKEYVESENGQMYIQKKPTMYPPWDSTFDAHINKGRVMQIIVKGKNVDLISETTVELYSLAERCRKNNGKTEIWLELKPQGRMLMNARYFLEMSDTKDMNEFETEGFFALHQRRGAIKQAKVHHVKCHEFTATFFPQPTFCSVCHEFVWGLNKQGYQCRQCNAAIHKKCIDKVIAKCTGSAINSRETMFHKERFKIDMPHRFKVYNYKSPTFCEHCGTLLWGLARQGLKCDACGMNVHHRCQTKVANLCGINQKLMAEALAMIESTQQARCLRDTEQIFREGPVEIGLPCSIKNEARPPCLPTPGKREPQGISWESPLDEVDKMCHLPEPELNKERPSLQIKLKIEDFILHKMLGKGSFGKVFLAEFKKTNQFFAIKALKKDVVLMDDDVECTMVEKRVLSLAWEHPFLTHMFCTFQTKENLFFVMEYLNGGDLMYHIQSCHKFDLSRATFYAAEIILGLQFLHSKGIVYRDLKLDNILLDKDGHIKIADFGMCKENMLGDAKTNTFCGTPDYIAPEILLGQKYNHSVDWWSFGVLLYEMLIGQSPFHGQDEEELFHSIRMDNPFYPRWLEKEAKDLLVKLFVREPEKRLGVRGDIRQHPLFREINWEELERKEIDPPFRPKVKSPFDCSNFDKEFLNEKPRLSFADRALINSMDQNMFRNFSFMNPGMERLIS

[30] = target: Misshapen-like kinase 1 (Homo sapiens) (UniProt Q8N4C8); details: Compound concentration 100.0 nM
[31] = test system: Serine/threonine-protein kinase B-raf (Homo sapiens), P15056 [V600E]; details: Compound concentration 100.0 nM
[32] = target: T1, Alpha-2B adrenergic receptor (Homo sapiens) (UniProt P18089); details: Compound concentration 10.0 uM
T1 sequence (whole entry): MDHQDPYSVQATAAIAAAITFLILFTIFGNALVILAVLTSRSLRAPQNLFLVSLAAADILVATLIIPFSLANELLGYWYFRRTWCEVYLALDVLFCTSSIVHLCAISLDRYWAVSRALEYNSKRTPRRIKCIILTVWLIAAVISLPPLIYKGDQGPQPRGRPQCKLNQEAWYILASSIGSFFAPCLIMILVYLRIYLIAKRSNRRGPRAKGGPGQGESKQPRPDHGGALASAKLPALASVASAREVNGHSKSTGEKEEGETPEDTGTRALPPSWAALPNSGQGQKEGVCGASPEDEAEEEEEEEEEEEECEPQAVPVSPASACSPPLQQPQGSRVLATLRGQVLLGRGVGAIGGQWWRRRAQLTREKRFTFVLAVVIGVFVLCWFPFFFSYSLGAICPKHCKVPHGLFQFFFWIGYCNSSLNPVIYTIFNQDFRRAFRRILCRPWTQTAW

[33] = test system: Tyrosine-protein kinase ABL1 (Homo sapiens), P00519 [F317L]; details: Compound concentration 100.0 nM
[34] = target: Proto-oncogene tyrosine-protein kinase ROS (Homo sapiens) (UniProt P08922); details: Compound concentration 100.0 nM
[35] = target: Receptor-interacting serine/threonine-protein kinase 4 (Homo sapiens) (UniProt P57078); details: Compound concentration 100.0 nM
Sequence of Receptor-interacting serine/threonine-protein kinase 4 (Homo sapiens) (P57078 whole entry): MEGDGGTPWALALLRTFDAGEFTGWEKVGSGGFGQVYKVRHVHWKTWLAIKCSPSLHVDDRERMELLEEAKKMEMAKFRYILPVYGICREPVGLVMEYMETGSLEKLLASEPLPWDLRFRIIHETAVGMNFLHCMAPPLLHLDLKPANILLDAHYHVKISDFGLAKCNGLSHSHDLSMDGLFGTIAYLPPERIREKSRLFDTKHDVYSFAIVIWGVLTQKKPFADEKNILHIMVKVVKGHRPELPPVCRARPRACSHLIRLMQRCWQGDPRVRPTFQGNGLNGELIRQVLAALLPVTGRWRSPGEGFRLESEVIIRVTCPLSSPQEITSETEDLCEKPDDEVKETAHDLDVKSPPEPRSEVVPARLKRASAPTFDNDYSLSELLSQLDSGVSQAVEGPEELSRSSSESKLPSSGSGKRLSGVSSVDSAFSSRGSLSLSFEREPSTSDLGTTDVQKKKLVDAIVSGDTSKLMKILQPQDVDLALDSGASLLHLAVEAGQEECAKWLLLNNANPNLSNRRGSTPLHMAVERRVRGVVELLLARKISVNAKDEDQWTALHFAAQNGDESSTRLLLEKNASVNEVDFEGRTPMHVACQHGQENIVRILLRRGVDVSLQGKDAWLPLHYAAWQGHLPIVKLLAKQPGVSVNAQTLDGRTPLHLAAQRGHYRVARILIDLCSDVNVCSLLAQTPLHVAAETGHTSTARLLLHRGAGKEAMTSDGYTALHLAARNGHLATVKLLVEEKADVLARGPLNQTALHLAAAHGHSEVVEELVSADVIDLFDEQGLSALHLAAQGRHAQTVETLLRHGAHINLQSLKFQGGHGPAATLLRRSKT

[36] = target: Activin receptor type-2A (Homo sapiens) (UniProt P27037); details: Compound concentration 100.0 nM
[37] = test system: Receptor-type tyrosine-protein kinase FLT3 (Homo sapiens), P36888 [D835Y]; details: Compound concentration 100.0 nM
[38] = target: Protein kinase C epsilon type (Homo sapiens) (UniProt Q02156); details: Compound concentration 100.0 nM

Sequence of Cyclin-G-associated kinase (Homo sapiens) (O14976 whole entry): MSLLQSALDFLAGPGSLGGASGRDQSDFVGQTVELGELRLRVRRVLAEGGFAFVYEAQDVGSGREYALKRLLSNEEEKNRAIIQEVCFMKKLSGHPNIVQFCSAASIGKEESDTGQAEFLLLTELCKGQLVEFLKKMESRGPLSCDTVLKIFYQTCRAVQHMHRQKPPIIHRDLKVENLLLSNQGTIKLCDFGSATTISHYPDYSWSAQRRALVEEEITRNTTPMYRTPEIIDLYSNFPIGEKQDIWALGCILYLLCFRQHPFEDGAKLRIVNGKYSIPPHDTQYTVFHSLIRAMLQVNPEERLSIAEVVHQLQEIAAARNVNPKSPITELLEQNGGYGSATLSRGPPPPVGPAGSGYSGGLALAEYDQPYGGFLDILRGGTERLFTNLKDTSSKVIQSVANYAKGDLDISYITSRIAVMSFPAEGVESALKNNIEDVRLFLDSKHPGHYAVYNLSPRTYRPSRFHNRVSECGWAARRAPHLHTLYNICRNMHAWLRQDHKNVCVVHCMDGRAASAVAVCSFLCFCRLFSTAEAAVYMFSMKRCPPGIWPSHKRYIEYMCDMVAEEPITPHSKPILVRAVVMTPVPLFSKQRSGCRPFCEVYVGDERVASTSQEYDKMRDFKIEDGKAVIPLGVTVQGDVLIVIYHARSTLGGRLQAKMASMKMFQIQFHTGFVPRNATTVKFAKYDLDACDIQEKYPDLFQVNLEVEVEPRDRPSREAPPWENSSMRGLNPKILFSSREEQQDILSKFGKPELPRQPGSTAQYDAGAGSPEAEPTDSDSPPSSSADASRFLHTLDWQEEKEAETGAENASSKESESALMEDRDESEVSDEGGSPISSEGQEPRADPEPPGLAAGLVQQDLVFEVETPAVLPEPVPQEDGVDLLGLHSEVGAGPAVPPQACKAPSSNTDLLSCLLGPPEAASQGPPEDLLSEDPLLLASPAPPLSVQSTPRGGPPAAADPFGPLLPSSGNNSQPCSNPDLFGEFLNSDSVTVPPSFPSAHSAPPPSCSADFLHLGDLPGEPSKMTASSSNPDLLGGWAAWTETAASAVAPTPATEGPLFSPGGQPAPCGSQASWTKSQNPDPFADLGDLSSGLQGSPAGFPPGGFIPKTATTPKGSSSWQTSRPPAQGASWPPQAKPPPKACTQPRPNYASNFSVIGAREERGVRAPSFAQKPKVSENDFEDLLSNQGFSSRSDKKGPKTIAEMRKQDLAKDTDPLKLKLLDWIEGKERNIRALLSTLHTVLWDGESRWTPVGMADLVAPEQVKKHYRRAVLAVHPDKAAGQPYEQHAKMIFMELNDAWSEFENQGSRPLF

Row | SMILES | residual activity [1] | inhibition [2] | residual activity [3] | residual activity [4] | residual activity [5] | residual activity [6] | residual activity [7] | residual activity [8] | residual activity [9] | residual activity [10] | residual activity [11] | residual activity [12] | residual activity [13] | Ki [14] | residual activity [15] | residual activity [16] | residual activity [17] | residual activity [18] | residual activity [19] | residual activity [20] | other results
1 | COCCOc1nc(-c2ccc(Cl)nc2)nc2c1CN(C(=O)c1ncn3ccccc13)CC2 [THPP-1] | 100% | 15% | 100% | 76% | 100% | 100% | 96% | 100% | 100% | 100% | 100% | 100% | 100% | 116 nM | 100% | 100% | 100% | 100% | 100% | 100% | residual activity [21]: 100%; residual activity [22]: 100%; residual activity [23]: 100%; residual activity [24]: 85%; residual activity [25]: 100%; residual activity [26]: 68%; residual activity [27]: 100%; residual activity [28]: 100%; residual activity [29]: 100%; residual activity [30]: 100%; residual activity [31]: 100%; inhibition [32]: -2.32%; residual activity [33]: 100%; residual activity [34]: 100%; residual activity [35]: 100%; residual activity [36]: 98%; residual activity [37]: 100%; residual activity [38]: 89%
2 | CC(C)CC(=O)N1CCc2nc(-c3ccc(Br)cc3)nc(N(C)Cc3ccccc3)c2C1 [THPP-1-NC] | 100% | -4.66% | 100% | 72% | 100% | 100% | 100% | 100% | 100% | 99% | 100% | 100% | 87% | 6890 nM (not active) | 100% | 100% | 100% | 100% | 100% | 100% | residual activity [21]: 100%; residual activity [22]: 100%; residual activity [23]: 100%; residual activity [24]: 77%; residual activity [25]: 100%; residual activity [26]: 94%; residual activity [27]: 100%; residual activity [28]: 82%; residual activity [29]: 100%; residual activity [30]: 100%; residual activity [31]: 100%; inhibition [32]: 29%; residual activity [33]: 100%; residual activity [34]: 100%; residual activity [35]: 100%; residual activity [36]: 97%; residual activity [37]: 100%; residual activity [38]: 100%
